Test system: Drosophila fruit flies
Assay: Fruit fly feeding: misincorporation of BMAA into proteins by LC/MS/MS
Type: in vivo, Drosophila melanogaster
Details: media with 25 mM BMAA and 25 mM L-Serine vs 25 mM BMAA, three days of feeding
Method: Thirty flies were from each treatment were weighed and sonicated (Fisher Scientific sonic dismembrator model 100; 2 watts for 30 secs) in 10% trichloroacetic acid (TCA 72 μg/μl). TCA extraction was completed in two steps 20 h at 4° C. using one half the TCA volume followed by centrifugation ([…] for 3 min, Labnet Spectrafuge™ 16M microcentrifuge) and removal of supernatant. This was followed by a second sonication and extraction, 5 hours at room temperature using an equal volume of TCA, followed by centrifugation and removal of supernatant. The supernatants were pooled (with the exception of 50 μl removed from the last extraction) and centrifuge filtered (0.22 μm Ultrafree®-MC, Millipore). The remaining protein pellet was transferred to a glass vial and hydrolyzed in 6 M HCl for 16 hours at 110° C. (58 μg/μl). […] Extracts were diluted and derivatized with 6-aminoquinolyl-N-hydroxysuccinimidyl carbamate (AQC) and analyzed by LC-MS/MS.
6-Aminoquinolyl-N-hydroxysuccinimidyl carbamate derivates (AQC Waters AccQTag reagent, P/N WAT052880) were analyzed using a triple quadrupole instrument (Thermo Scientific Finnigan TSQ Quantum Ultra, San Jose, CA) after separation by a Waters Acquity-UHPLC system with a Binary Solvent Manager, Sample Manager and a Waters AccQTag Ultra column (part#186003837, 2.1×100 mm) at 55° C. […]

Q: What does the source list for N[C@@H](CO)C(=O)O [L-serine]?
A: effect on amount of BMAA misincorporation into proteins: reduces BMAA incorporation into proteins; effect on amount of BMAA misincorporation into proteins (listed as L-Serine): reduced by half
